The values that follow come from patent publication US11572590B2, “Methods for evaluating tumor cell spheroids using 3D microfluidic cell culture device” (Dana-Farber Cancer Institute, Inc., priority 2017, dated 2023).

Test in all cases: SelectScreen Kinase Profiling, single point inhibition and IC50 for off-target kinases
Common to all, as to assay type: biochemical

For assay [1], the target named is off-target kinases (Homo sapiens, UniProt P10721, V654A). The conditions noted are these: KIT V654A (mutant), LanthaScreen Binding. Background: In TR-FRET formats the signal depends on donor and acceptor labels being close together.
off-target kinases (Homo sapiens, UniProt P10721, V654A), sequence (P10721 26-976 V654A): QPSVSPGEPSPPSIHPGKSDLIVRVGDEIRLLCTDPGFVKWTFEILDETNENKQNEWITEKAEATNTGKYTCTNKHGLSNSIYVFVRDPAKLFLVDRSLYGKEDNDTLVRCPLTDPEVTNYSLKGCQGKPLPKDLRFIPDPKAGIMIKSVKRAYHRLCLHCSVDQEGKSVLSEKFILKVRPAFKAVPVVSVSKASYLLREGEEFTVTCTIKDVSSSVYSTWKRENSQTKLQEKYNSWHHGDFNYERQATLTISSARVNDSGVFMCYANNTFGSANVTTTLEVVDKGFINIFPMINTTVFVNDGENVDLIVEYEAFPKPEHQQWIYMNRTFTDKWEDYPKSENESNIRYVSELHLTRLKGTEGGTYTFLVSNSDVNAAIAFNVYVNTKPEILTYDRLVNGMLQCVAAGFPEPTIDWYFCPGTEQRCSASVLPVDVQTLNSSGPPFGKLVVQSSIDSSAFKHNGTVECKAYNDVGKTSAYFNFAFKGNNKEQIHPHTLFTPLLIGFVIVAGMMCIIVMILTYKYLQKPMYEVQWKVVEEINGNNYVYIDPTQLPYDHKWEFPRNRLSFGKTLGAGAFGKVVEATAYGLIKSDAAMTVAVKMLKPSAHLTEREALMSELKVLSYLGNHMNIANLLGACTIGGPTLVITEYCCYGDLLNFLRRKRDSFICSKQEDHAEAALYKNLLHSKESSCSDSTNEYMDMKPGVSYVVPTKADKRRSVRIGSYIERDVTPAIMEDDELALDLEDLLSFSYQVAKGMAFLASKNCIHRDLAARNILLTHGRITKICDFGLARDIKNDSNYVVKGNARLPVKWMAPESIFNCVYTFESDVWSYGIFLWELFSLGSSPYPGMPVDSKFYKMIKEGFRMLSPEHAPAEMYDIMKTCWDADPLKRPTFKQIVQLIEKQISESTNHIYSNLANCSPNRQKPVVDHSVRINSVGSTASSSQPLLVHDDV
In assay [2] the target is off-target kinases (Homo sapiens, UniProt P78362). The note with it: SRPK2; Cmpd1 1000 μM; ATP Km app; ZLYTE.
off-target kinases (Homo sapiens, UniProt P78362), sequence (P78362 whole entry): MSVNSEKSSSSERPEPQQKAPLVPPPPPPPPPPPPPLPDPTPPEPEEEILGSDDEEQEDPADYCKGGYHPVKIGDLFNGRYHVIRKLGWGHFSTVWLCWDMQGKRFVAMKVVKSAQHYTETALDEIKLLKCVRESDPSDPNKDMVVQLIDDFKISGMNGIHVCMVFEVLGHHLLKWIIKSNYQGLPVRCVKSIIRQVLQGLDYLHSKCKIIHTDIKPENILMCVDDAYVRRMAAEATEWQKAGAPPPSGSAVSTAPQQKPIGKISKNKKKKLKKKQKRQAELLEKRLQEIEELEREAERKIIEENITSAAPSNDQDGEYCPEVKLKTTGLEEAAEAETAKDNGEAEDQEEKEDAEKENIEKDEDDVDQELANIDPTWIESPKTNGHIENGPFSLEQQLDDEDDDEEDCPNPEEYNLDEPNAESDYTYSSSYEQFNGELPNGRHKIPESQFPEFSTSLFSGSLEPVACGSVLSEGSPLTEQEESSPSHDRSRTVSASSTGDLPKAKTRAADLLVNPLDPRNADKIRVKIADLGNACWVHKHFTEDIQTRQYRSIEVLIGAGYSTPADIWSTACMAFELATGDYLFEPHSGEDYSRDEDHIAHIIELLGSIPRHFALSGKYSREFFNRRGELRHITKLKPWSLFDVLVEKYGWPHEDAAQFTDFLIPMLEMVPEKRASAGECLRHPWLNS
Assay [3] concerns the target off-target kinases (Homo sapiens, UniProt Q02763). The note with it: TEK (Tie2), ZLYTE, ATP Km app.
For assay [4], the target named is off-target kinases (Homo sapiens, UniProt Q05655). The note with it: PRKCD (PKC delta), ZLYTE, ATP Km app.
off-target kinases (Homo sapiens, UniProt Q05655), sequence (Q05655 whole entry): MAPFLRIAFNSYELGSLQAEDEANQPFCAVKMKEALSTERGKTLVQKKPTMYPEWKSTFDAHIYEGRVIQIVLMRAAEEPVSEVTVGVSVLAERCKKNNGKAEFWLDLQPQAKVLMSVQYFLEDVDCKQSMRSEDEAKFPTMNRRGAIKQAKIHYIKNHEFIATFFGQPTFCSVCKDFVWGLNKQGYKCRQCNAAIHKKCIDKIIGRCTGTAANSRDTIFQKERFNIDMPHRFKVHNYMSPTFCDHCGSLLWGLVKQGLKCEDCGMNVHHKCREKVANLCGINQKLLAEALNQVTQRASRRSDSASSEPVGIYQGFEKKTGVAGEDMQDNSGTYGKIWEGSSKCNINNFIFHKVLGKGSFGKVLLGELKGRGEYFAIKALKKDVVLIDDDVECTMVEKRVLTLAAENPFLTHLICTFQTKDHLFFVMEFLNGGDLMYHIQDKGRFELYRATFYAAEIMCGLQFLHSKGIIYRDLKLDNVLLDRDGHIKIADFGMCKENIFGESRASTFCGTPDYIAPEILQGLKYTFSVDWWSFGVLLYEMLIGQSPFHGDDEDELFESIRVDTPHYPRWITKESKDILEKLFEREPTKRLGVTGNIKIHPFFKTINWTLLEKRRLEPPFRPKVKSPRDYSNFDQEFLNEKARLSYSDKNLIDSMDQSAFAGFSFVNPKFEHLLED
Assay [5] addresses T1, off-target kinases (Homo sapiens, UniProt Q7L7X3).
T1 sequence (Q7L7X3 1-1001): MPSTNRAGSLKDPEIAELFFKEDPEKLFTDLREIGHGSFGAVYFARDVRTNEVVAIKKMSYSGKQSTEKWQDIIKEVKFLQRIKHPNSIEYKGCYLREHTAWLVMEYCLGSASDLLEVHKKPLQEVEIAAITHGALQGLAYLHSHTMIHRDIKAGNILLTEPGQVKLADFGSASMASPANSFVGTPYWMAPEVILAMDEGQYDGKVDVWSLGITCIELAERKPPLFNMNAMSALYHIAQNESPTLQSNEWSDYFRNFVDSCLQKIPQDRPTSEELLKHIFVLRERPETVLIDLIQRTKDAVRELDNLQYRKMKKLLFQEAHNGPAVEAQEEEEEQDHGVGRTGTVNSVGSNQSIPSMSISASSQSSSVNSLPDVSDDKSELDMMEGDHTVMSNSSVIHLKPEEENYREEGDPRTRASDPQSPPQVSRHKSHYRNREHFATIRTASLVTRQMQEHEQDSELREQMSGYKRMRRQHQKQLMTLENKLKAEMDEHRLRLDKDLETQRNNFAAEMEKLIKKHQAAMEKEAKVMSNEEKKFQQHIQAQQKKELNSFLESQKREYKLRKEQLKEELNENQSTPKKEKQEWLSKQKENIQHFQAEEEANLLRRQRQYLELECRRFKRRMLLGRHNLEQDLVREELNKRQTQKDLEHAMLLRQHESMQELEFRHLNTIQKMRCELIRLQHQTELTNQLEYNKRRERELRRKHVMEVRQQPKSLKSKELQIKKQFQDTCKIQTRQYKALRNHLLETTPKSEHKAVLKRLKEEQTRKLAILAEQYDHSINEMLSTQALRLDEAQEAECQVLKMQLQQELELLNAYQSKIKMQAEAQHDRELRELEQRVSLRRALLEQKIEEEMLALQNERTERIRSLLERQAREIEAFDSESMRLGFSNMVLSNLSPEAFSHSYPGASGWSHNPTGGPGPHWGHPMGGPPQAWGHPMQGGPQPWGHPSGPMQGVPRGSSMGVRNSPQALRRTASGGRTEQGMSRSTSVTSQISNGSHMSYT
The note with it: TAOK1, LanthaScreen Binding.

Where two headings read alike, the source gives them in different places.

off-target kinases (Homo sapiens, UniProt Q02763), sequence (Q02763 23-1124): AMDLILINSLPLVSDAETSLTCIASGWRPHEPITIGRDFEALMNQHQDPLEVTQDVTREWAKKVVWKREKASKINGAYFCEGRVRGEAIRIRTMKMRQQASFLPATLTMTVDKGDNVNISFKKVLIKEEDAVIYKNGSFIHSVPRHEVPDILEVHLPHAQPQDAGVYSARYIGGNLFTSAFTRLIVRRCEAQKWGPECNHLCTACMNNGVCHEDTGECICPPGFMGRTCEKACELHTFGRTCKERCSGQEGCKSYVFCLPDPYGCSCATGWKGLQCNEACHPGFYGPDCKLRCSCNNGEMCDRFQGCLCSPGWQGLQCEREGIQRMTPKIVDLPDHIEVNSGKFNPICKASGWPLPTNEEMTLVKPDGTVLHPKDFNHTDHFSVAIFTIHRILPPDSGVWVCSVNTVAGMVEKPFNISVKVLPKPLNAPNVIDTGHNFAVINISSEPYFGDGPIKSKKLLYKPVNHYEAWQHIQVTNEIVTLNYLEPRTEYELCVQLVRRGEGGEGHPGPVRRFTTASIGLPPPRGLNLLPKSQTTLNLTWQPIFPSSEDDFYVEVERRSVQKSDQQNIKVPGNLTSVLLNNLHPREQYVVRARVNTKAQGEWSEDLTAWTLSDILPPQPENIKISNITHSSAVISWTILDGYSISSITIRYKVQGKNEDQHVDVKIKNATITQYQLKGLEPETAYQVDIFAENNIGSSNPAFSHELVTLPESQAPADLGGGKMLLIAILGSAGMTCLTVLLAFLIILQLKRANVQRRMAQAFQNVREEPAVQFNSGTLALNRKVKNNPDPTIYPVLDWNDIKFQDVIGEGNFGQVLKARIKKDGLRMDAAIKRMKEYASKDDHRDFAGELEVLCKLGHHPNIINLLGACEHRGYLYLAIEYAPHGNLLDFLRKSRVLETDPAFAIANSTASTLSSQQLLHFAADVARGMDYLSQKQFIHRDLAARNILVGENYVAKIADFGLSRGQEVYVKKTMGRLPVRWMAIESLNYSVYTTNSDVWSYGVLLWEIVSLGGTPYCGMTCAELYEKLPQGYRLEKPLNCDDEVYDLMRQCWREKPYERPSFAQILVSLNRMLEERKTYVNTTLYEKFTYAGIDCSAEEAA

As a reminder, the inhibition is the drop in the measured response relative to a control, in per cent. For `N#Cc1cc(-c2ncnc(Nc3ccc(N4CCN(C5COC5)CC4)cc3)n2)ccc1OC1CCOCC1` [Compound 1, 5-(4-((4-(4-(oxetan-3-yl)piperazin-1-yl)phenyl)amino)-1,3,5-triazin-2-yl)-2-((tetrahydro-2H-pyran-4-yl)oxy)benzonitrile], the inhibition stood at 7% at off-target kinases [1] (read-out: % Inhibition 1); 10% on off-target kinases [1] (read-out: % Inhibition 2); 9% at off-target kinases [1] (read-out: % Inhibition Avg); 11% at off-target kinases [3] (read-out: % Inhibition 1); 17% on off-target kinases [3] (read-out: % Inhibition 2); 14% on off-target kinases [3] (read-out: % Inhibition Avg). Moreover, the inhibition on off-target kinases [4] (read-out: % Inhibition 1) is 4%; on off-target kinases [4] (read-out: % Inhibition 2), -4%; on off-target kinases [4] (read-out: % Inhibition Avg), 0%; at off-target kinases [5] (read-out: % Inhibition 1) it was 45%; on off-target kinases [5] (read-out: % Inhibition 2), 43%; at off-target kinases [5] (read-out: % Inhibition Avg), 44%. In addition, the “% Inhibition 1” value on off-target kinases [2] is reported as −2%. For the same molecule, the “% Inhibition 2” value on off-target kinases [2] is −4%. At off-target kinases [2], the “% Inhibition Avg” value is listed as −3%.
